Where a name gives a salt, the structure may show the parent alone.
Assays:
[1] = tested on: β-receptor; assay: β-blocking effectiveness: inhibition of isoprenaline-induced increase of the frequency in rabbits; format: in vivo, rabbit; settings: i.v., isoprenaline 1 mcg/kg i.v.
[2] = tested on: rat livers; assay: denitration rate in re-perfused rat livers (nitrate-like action); settings: rat liver re-perfused 4 min, equimolar 5×10^-5 M/l; freed NO2 determined in the perfusate; high values = fast denitration

Row | SMILES | ID 50 fcor (dose causing 50% inhibition of the increase of the frequency through isoprenaline) [1] | Vrel (denitration rate in relation to isosorbide-5-mononitrate) [2]
1 | CC(C)(C)NCC(O)COc1ccc(NC(=O)[C@H]2CC[C@H](O[N+](=O)[O-])CC2)cc1 (relative stereo) [2 (e), 1-[4-[[(t-4-nitroxy)-cyclohexyl]-r-1-carbonylamino]]-phenoxy-3-tert.-butylaminopropan-2-ol hydrochloride] | 4 006 mcg/kg | 0.95
2 | CC(C)(C)NCC(O)COc1ccc(NC(=O)C[C@@H]2CCCC[C@H]2O[N+](=O)[O-])cc1 (relative stereo) [2 (g), 1-[4-[[(t-2-nitroxy)-cyclohexyl]-r-1-methylcarbonylamino] ]-phenoxy-3-tert.-butylaminopropan-2-ol hydrochloride] | 4 158 mcg/kg | 0.97
3 | CC(C)(C)NCC(O)COc1ccc(NC(=O)[C@H]2CC[C@H](O[N+](=O)[O-])CC2)cc1C#N (relative stereo) [4 (c), 1-[2-cyano-4-[[(t-4-nitroxy)-cyclohexyl]-r-1-carbonylamino]]-phenoxy-3-tert.-butylaminopropan-2-ol benzoate] |  | 1.95
4 | CC(=O)c1cc(NC(=O)[C@H]2CC[C@H](O[N+](=O)[O-])CC2)ccc1OCC(O)CNC(C)(C)C (relative stereo) [6 (c), 1-[2-methylcarbonyl-4-[[(t-4-nitroxy)-cyclohexyl]-r-1-carbonylamino]]-phenoxy-3-tert.-butylaminopropan-2-ol hydrochloride] | 2 273 mcg/kg | 1.34
5 | CC(C)(C)NCC(O)COc1ccc(CC(=O)N[C@@H]2CCCC[C@H]2O[N+](=O)[O-])cc1 (relative stereo) [9 (d), trans-1-[4-[(2-nitroxycyclohexyl)-amino]-carbonylmethyl]-phenoxy-3-tert.-butylaminopropan-2-ol] |  | 1.06
6 | CC(C)(C)NCC(O)COc1ccc(NC(=O)CCCCO[N+](=O)[O-])cc1 (centres unmarked) [2 (a), 1-[4-(4-nitroxybutyl)-carbonylamino]-phenoxy-3-tert.-butylaminopropan-2-ol fumarate] |  | 0.65
7 | CC(C)(C)NCC(O)COc1ccc(NC(=O)C(C)(C)CO[N+](=O)[O-])cc1 (centres unmarked) [2 (b), 1-[4-(2-methyl-1-nitroxy-2-propyl)-carbonylamino]-phenoxy-3-tert.-butylaminopropan-2-ol hydrochloride] | 4 164 mcg/kg | 0.68
8 | CC(C)(C)NCC(O)COc1ccc(NC(=O)CCCO[N+](=O)[O-])cc1C#N (centres unmarked) [4 (a), 1-[2-cyano-4-(3-nitroxypropyl)-carbonylamino]-phenoxy-3-tert.-butylaminopropan-2-ol hydrochloride] | 180 µg/kg | 0.74
9 | CC(=O)c1cc(NC(=O)CCCO[N+](=O)[O-])ccc1OCC(O)CNC(C)(C)C (centres unmarked) [6 (a), 1-[2-methylcarbonyl-4-(3-nitroxypropyl)-carbonylamino]-phenoxy-3-tert.-butylaminopropan-2-ol fumarate] | 886 µg/kg | 0.51
10 | CC(CNC(=O)Cc1ccc(OCC(O)CNC(C)(C)C)cc1)O[N+](=O)[O-] (centres unmarked) [9 (a), 1-[4-[(2-nitroxypropyl)-amino]-carbonylmethyl]-phenoxy-3-tert.-butylaminopropan-2-ol hemifumarate] | 3 147 mcg/kg | 0.34
11 | CN(CC(C)(C)CO[N+](=O)[O-])C(=O)Cc1ccc(OCC(O)CNC(C)(C)C)cc1 (centres unmarked) [9 (c), 1-[4-[[N--(2,2-dimethyl-3-nitroxypropyl)-N--methyl]-amino]-carbonylmethyl]-phenoxy-3-tert.-butylaminopropan-2-ol fumarate] |  | 1.63
12 | CC(C)(C)NCC(O)COc1ccc(CC(=O)N2CCC(O[N+](=O)[O-])CC2)cc1 (centres unmarked) [9 (f), 1-[4-(4-nitroxy-1-piperidino)-carbonylmethyl]-phenoxy-3-tert.-butylaminopropan-2-ol fumarate] |  | 1.23
13 | CC(C)(C)NCC(O)COc1ccc(CC(=O)N2CCCC(CO[N+](=O)[O-])C2)cc1 (centres unmarked) [9 (g), 1-[4-(3-nitroxymethyl-1-piperidino)-carbonylmethyl]-phenoxy-3-tert.-butylaminopropan-2-ol fumarate] |  | 1.69
14 | CC(C)(C)NCC(O)COc1ccc(CC(=O)N2CCC(CO[N+](=O)[O-])CC2)cc1 (centres unmarked) [9 (h), 1-[4-(4-nitroxymethyl-1-piperidino)-carbonylmethyl]-phenoxy-3-tert.-butylaminopropan-2-ol fumarate] | 1 207 mcg/kg | 1.06
15 | C#CC(C)(C)NCC(O)COc1ccc(CC(=O)N2CCC(CO[N+](=O)[O-])CC2)cc1 (centres unmarked) [9 (j), 3-(2-methyl-3-butyn-2-yl)-amino-1-[4-(4-nitroxymethyl-1-piperidino)-carbonylmethyl]-phenoxypropan-2-ol fumarate] |  | 1.94
16 | CC(C)(C)NCC(O)COc1ccc(NC(=O)CCCO[N+](=O)[O-])cc1 (centres unmarked) [Example 1, 1-[4-(3-Nitroxypropyl)-carbonylamino]-phenoxy-3-tert.-butylaminopropan-2-olhydrochloride] | 2 326 mcg/kg | 0.77
17 | CCOC(=O)c1cc(NC(=O)CCCO[N+](=O)[O-])ccc1OCC(O)CNC(C)(C)C (centres unmarked) [Example 7, 1-[2-Ethoxycarbonyl-4-(3-nitroxypropyl)-carbonylamino]phenoxy-3-tert.-butylaminopropan-2-ol cyclamate] | 1 619 mcg/kg | 1.72
18 | CC(C)(C)NCC(O)COc1ccc(CC(=O)NCCCO[N+](=O)[O-])cc1 (centres unmarked) [Example 8, 1-[4-[(3-Nitroxypropyl)-amino]-carbonylmethyl]-phenoxy-3-tert.-butylaminopropan-2-ol fumarate] |  | 0.48
19 | O=[N+]([O-])O[C@@H]1CO[C@H]2[C@@H]1OC[C@@H]2O [Isosorbide-5-mononitrate, isosorbide-5-mononitrate, reference compound] |  | 0.86
